Key:
USP30 = target: T1, USP30 (Homo sapiens, UniProt Q70CQ3); experiment: USP30 biochemical IC50 assay (fluorescence polarisation); details: for fold more potent against USP30 than Reference Example A / fold more potent against USP30 than Reference Example B / fold more potent against USP30 than Reference Example C / fold more potent against USP30 than Reference Example D: biochemical assay; for IC50: read-out: USP30 IC50
T1 construct: purchased Boston Biochem E582
T1 sequence (Q70CQ3 57-517 limits assumed): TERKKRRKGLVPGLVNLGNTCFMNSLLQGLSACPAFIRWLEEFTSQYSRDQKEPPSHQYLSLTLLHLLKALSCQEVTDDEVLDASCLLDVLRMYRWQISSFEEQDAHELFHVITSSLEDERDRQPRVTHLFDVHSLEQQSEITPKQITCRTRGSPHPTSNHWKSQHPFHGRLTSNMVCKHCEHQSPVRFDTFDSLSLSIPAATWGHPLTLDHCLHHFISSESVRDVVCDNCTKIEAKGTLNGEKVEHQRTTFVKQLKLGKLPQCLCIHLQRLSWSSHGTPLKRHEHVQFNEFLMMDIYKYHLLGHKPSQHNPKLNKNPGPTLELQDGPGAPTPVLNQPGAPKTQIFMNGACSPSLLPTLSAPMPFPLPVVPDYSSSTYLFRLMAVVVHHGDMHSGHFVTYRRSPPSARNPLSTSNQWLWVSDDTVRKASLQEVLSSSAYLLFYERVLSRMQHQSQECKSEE
Experimental: Dilution plates were prepared at 21 times the final concentration (2100 μM for a final concentration of 100 μM) in 50% DMSO in a 96-well polypropylene V-bottom plate (Greiner #651201). A typical 8-point dilution series would be 100, 30, 10, 3, 1, 0.3, 0.1, 0.03 μM final. Reactions were performed in duplicate in black 384 well plates (small volume, Greiner 784076) in a final reaction volume of 21 μl. Either 1 μl of 50% DMSO or diluted compound was added to the plate. USP30 (Boston Biochem #E582) was diluted in reaction buffer (40 mM Tris, pH 7.5, 0.005% Tween 20, 0.5 mg/ml BSA, 5 mM beta-mercaptoethanol) to achieve a final assay concentration of 4 nM, and 10 μl of diluted USP30 was added to the compound. Enzyme and compound were incubated for 30 min at room temp. Reactions were initiated by the addition of 50 nM of TAMRA labelled peptide linked to ubiquitin via an iso-peptide bond as fluorescence polarisation substrate. Reactions were read immediately after addition of substrate and following a 2-hour incubation at room temperature. Readings were performed on a Pherastar Plus (BMG Labtech). λ Excitation 540 nm; Emission 590 nm.

UCHL1 = target: T2, UCHL1 (Homo sapiens, UniProt P09936); experiment: DUB IC50 UCHL1; type: biochemical
T2 sequence (P09936 1-223): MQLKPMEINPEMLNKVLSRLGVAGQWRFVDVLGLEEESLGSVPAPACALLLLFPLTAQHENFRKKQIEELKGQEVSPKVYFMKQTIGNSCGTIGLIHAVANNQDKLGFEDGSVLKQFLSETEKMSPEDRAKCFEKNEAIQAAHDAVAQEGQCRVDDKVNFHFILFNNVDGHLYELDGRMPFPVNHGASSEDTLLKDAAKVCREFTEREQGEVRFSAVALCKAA

[1] = test system: cathepsins B, K, L, S and V; experiment: Cathepsin IC50, summary over B, K, L, S, V; type: biochemical; details: K, L; for fold more potent against USP30 than against each of the cathepsins, at a minimum: cathepsins B, S and V; for Selectivity preference for USP30 v cathepsins: range over cathepsins B, S
[2] = test system: Eurofins CEREP SafetyScreen44 panel; experiment: Eurofins CEREP SafetyScreen44 panel profiling; type: binding; details: single concentration of 10 μM; for Example 2 all targets except 5-HT2b
Text: Aside from selectivity over other DUB enzymes, it is important for a drug to have low affinity for other targets, and pharmacological profiling may be performed against panels of targets to assess the potential for, and to minimise, potential off-target effects. Examples of targets for which the compounds of the present invention may be screened against are those of the industry standard Eurofins-Cerep SafetyScreen44 panel, which includes 44 targets as a representative selection of GPCR receptors, transporters, ion channels, nuclear receptors, and kinase and non-kinase enzymes. Preferably, compounds of the invention have insignificant affinity against targets of this screening panel. Further examples of targets for which the compounds of the present invention may be screened against are kinases of the Thermo Fisher SelectScreen kinase profiling panel, which includes 39 targets as a representative selection of kinase enzymes. Preferably, compounds of the invention have insignificant affinity against targets of this screening panel. Additionally, examples of a particular enzyme class for which the compounds of the present invention may be screened against are the cathepsins (e.g. cathepsin A, B, C, H, K, L, L2, S, V and Z). Preferably, compounds of the invention have good selectivity for USP30 over one or more of these enzymes. […]

[3] = test system: Salmonella typhimurium strains TA98, TA100, TA1535 and TA97a and the Escherichia Coli strain WP2 uvrA pKM101; experiment: Bacterial reverse mutation assay (Ames); type: cell-based; details: up to 1000 μg/well (5000 μg/plate), with and without metabolic activation
Experimental: The bacterial reverse mutation assay (Ames Test) may be used to evaluate the mutagenic properties of compounds of the invention, commonly by using the bacterial strain Salmonella typhimurium, which is mutant for the biosynthesis of the amino acid histidine.
Example 1 was assessed in the bacterial reverse mutation assay (Ames) and in vitro micronucleus assay. All in vitro tests were conducted with and without exogenous metabolic activation using concentrations up to those limited by cytotoxicity or insolubility.
Example 2 was assessed in the bacterial reverse mutation assay (Ames). All in vitro tests were conducted with and without exogenous metabolic activation using concentrations up to those limited by cytotoxicity or insolubility.

hepatocyte = experiment: Hepatocyte clearance mouse; type: in vitro ADME; details: mouse hepatocytes
Text: log P: partition coefficient; lipophilicity measurement. log D: distribution co-efficient; lipophilicity measurement. TPSA: topological polar surface area. Turbidimetric solubility: Test compound solution prepared in DMSO diluted into aqueous buffer. Turbidimetry is used as the end-point by measuring absorbance at 620 nm. FaSSIF: simulated intestinal fluid in fasted state measured at pH 6.5. Hep Cl mouse: in vitro hepatocyte clearance in mouse cells. Hep Cl human: in vitro hepatocyte clearance in human cells. Plasma fu,p: The free fraction of a compound in plasma preparation determined by in vitro equilibrium dialysis. It is understood that only unbound (free) compound is capable of engaging with the target. Brain fu,br: The free fraction of a compound in brain homogenate preparation determined by in vitro equilibrium dialysis. It is understood that only unbound (free) compound is capable of engaging with the target. Clu: in vitro clearance. Clu as defined here is the scaled clearance, in turn calculated from the intrinsic clearance. The intrinsic clearance is the predicted clearance due to hepatic metabolic reactions, determined from incubation of a compound in a hepatocyte preparation. […] Cl in vivo clearance: Pharmacokinetic measurement of the volume of plasma (or any matrix) from which a substance is completely removed per unit time.

Row | Compound | fold more potent against USP30 than Reference Example A (USP30) [fold] | fold more potent against USP30 than Reference Example B (USP30) [fold] | fold more potent against USP30 than Reference Example C (USP30) [fold] | fold more potent against USP30 than Reference Example D (USP30) [fold] | IC50 (USP30) [nM] | DUB selectivity preference for USP30 v UCHL1 (UCHL1) | IC50 (UCHL1) [µM] | fold more potent against USP30 than against each of the cathepsins, at a minimum [1] [fold] | Selectivity preference for USP30 v cathepsins [1] | inhibition of binding or enzyme activity against all targets in the panel [2] | induction of mutations, reverse mutation assay ([3]; TA98, TA100, TA1535, TA97a and E. coli WP2 uvrA pKM101) | Hepatocyte Cl mouse scaled Clu (hepatocyte) [mL/min/kg] | induction of mutations, reverse mutation assay ([3]; TA98 and TA100)
1 | COC[C@@H]1C[C@@H](NC(=O)c2ncc(-c3cccc(OC(F)(F)F)c3)o2)CN1C#N [Example 1, N-((3R,5S)-1-Cyano-5-(methoxymethyl)pyrrolidin-3-yl)-5-(3-(trifluoromethoxy)phenyl)oxazole-2-carboxamide] | 14 | 34 | 62 | 880 | 5 | 60000 | > 300 | ≥ 3300 | 3300-31600 | less than 20% | did not induce mutations | 84.7 | 
2 | C[C@@H]1C[C@@H](NC(=O)c2ncc(-c3cccc(OC(F)(F)F)c3)o2)CN1C#N [Example 2, N-((3R,5R)-1-Cyano-5-methylpyrrolidin-3-yl)-5-(3-(trifluoromethoxy)phenyl)oxazole-2-carboxamide] | 14 | 34 | 62 | 880 | 5 | 20000 | > 100 | ≥ 1700 | 1700-6000 | less than 20% |  | 130.6 | did not induce mutations

From US20230119013A1, “N-CYANOPYRROLIDINES WITH ACTIVITY AS USP30 INHIBITORS” (MISSION THERAPEUTICS LIMITED, priority 2020, published 2023)
